Source: patent publication US7425565B2, “Use of benzothiopenes to treat and prevent prostate cancer” (Cedars-Sinai Medical Center, priority 2002, dated 2008)
Where a name gives a salt, the structure may show the parent alone.

Key:
[1] = tested on: human prostate tumor cells (CWR22R); experiment: Inhibition of tumor growth in androgen-independent xenograft model (CWR22R); assay type: in vivo, nude mice; details: 0.85 mg/kg daily s.c., after 30 days
Source text: The inventor used an androgen-independent xenograft model of human prostate tumor cells (CWR22R) to raise tumors in male and female nude mice. Tumors developed over a period of 2-3 weeks into palpable masses. 10 mice were randomly assigned to a treatment group and 10 mice were assigned to a control group. […] Mice in the control group received an injection of saline solution. After 30 days, tumors from surviving mice were surgically removed and visibly examined. Tumor size was reduced by 60% in mice from the treated group as compared to mice from the control group and female hosts.

[2] = tested on: androgen-independent prostate cancer; experiment: Treatment of male patients with androgen-independent prostate cancer (Example 1); assay type: in vivo, human
Experimental: Three male patients were selected for treatment on the basis of established diagnosis with prostate cancer. All three patients had failed standard androgen withdrawal therapy. Average prostate-specific antigen (“PSA”) levels for each patient at the beginning of treatment was about 20-30 ng/ml. Hormone ablative therapy, in some cases aggressively administered as long as 36 months, had failed, manifested by a continued rise in PSA levels in each patient. […] Each patient continued to receive luteinizing hormone-releasing hormone (“LHRH”)-agonist therapy, despite tumor growth in its presence. This is considered standard therapy, as tumor growth is likely to be more aggressive if testosterone levels were allowed to return to normal in these patients.

[3] = tested on: androgen-independent prostate cancer; details: several previous clinical trials; cited from earlier work

| Structure (SMILES) | reduction of tumor size vs control group [1] [%] | bone scan of the longest treated patient ([2]; 17 months since beginning therapy) | continued PSA of the longest treated patient ([2]; 17 months since beginning therapy, 60 mg/day orally) [ng/mL] | decline of PSA levels ([2]; three patients, 60 mg orally once a day for a minimum of 30 days, continued LHRH-agonist therapy) [%] | effect on androgen-independent prostate cancer [3] |
| --- | --- | --- | --- | --- | --- |
| O=C(c1ccc(OCCN2CCCCC2)cc1)c1c(-c2ccc(O)cc2)sc2cc(O)ccc12 [raloxifene HCl, Raloxifene hydrochloride] | 60 | improvement in their bone scan | < 0.4 | > 50 | – |
| CC/C(=C(\c1ccccc1)c1ccc(OCCN(C)C)cc1)c1ccccc1 [tamoxifen] | – | – | – | – | no effect |
